Source: patent US5322841A, “Method for producing neutral glucans for pharmaceutical applications” (Alpha-Beta Technology, Inc., priority 1992, dated 1994)

Tests used:
[1] = tested on: β-glucan receptor of monocytes; assay: Inhibition of Zymosan ingestion by human monocytes (affinity for the monocyte β-glucan receptor); format: cell-based
Protocol: Human monocytes were incubated with various concentrations of the PGG for 15 minutes, washed to remove unbound glucan and then incubated with Zymosan for 30 minutes. After fixing and staining the monolayers, the percentage of monocytes ingesting Zymosan was determined. The affinity of glucan preparations for the β-glucan receptor by was measured according to their ability to competitively occupy the receptor thus inhibiting the uptake of Zymosan by monocytes. Samples were compared by taking the concentration of glucan required to obtain 50% inhibition of Zymosan ingestion.
Two molecular weight fractions of PGG from Saccharomyces cerevisiae R4 were prepared according to the procedure outlined in Example 2. The PGG preparations were then assayed for their affinity to the monocyte β-glucan receptor by measuring inhibition of Zymosan phagocytosis as described in Example 3.

[2] = target: β-glucan receptor of monocytes; conditions: Table 1; value from Czop and Austen, J. Immunology 135(5):3388-3393 (1985); cited from earlier work
E. coli strain TVDL-rat = assay: E. coli sepsis model in mice; format: in vivo
Protocol: A sepsis model was developed in mice to characterize the efficacy of modified PGG glucans in protecting an immunologically intact host against serious infections, such as those which commonly occur following abdominal surgery. PGG derived from WGP-R4 was prepared according to the procedure outlined in Example 2.
The model used intraperitoneal challenge of mice with an 0.1 ml suspension of E. coli strain TVDL-rat (approximately 10^8 CFU/ml) 24 hours following IV administration of PGG by single bolus injection using transthoracic cardiac puncture. Mice were returned to their cages and maintained on food and water ad libitum. A control group of 10 mice were injected with 0.1 ml sterile saline at the time of the PGG administration. Mortality rates for the treatment groups and saline control group were recorded at 48 hours after challenge.

[3] = tested on: peripheral white blood cell (WBC) counts; assay: Peripheral total and differential white blood cell counts in mice after IV or SC PGG; format: in vivo, male CD-1 mice
Protocol: The effect of in vivo administration of modified glucans on peripheral white blood cell (WBC) counts was characterized in mice. PGG preparations of the modified glucan from strain R4 were prepared according to the procedure outlined in Example 2 and administered intravenously (IV) and subcutaneously (SC) to male CD-1 mice. Total and differential cell counts were monitored at regular time intervals.

[4] = most pronounced increase, FIGS. 2 and 3, mice
[5] = multiple-dose SC regimen, 5 mg/mouse/day×4 days, after initiation of therapy

Substance	Relative Avidity ([1]; Table 1, relative to Barley β-Glucan = 1)	Concentration for 50% Inhibition [2] [µg/mL]	concentration of glucan required to obtain 50% inhibition of Zymosan ingestion ([1]; human monocytes incubated with glucan 15 minutes, then Zymosan 30 minutes, FIG. 1) [µg/mL]	increase in activity (affinity for monocyte β-glucan receptor) versus YE glucan ([1]; ratio of concentrations for 50% inhibition of Zymosan ingestion) [fold]	lowest dose significantly reducing mortality (E. coli strain TVDL-rat; single IV bolus 24 hours before E. coli challenge, equals 0.5 mg/kg body weight) [mg/mouse]	mortality at 48 hours after challenge compared to saline control group (E. coli strain TVDL-rat; single IV bolus 24 hours before intraperitoneal E. coli challenge, p<0.05, doses as low as 0.01 mg/mouse (0.5 mg/kg body weight))	time to amplification of total WBC counts ([3]; FIGS. 2 and 3, mice) [h]	increase in granulocyte count [3, 4] [×]	increase in monocyte count [3, 4] [×]	increase in average monocyte count, zero hours to 144 hours ([3]; multiple-dose SC regimen) [fold]	time at which increase in total WBC begins [3, 5] [h]	time at which increase in total WBC peaks [3, 5] [h]	average monocyte count ([3]; multiple-dose SC regimen, at 144 hours (320/mm^3 at zero hours))	total WBC count ([3]; single-dose IV administration, 5 mg/mouse)
Barley β-Glucan [reference compound]	1	65												
poly-(1-6)-β-D-glucopyranosyl-(1-3)-β-D-glucopyranose [PGG]			0.1	35	0.01	significantly reduced mortality	< 6	6	12	24	48	144	approximately 8,000 /mm^3	profound increase
